These results are taken from paper PMC5156323 (Journal of natural products, 2015).

Holding throughout (assay type): cell-based
Experiment [1] deals with proinflammatory cytokine production in induced THP-1 cells. In words: induced THP-1. The conditions noted are these: at 10 μM.
For experiment [2], the system named is IL-33 production in induced THP-1 cells. The experiment in a line: induced THP-1. The conditions noted are these: at 10 μM; THP-1 cells induced with LPS and TiO2.
Experiment [3] deals with tumor necrosis factor-alpha (TNF-α) production in induced THP-1 cells. The experiment in a line: induced THP-1. The conditions noted are these: abstract, no concentration given.
In experiment [4] the test system is melanoma cell line LOX IMVI. The experiment in a line: NCI-DTP 60, LOX IMVI. The conditions noted are these: Homo sapiens, read-out: IC50 (cytotoxic).
Experiment [5] has as its system IL-1β production in induced THP-1 cells. In words: induced THP-1. The conditions noted are these: abstract, no concentration given.
Experiment [6] has as its system leukemia cell line SR. The experiment in a line: NCI-DTP 60, SR. The conditions noted are these: read-out: IC50 (cytotoxic).
For experiment [7], the system named is interleukin 6 (IL-6) production in induced THP-1 cells. In words: induced THP-1.

On to `CCCCCCCCCC(=O)[C@@H]1C(=O)O[C@@]2(C)C(=O)C=C3C=C(C[C@H](C)O)OC=C3[C@@H]12` [Compound 1, berkchaetoazaphilone A], for which the “effect on proinflammatory cytokine production” value in experiment [1] is “no effect”.

By IC50 is commonly meant the concentration needed to halve the response being measured. On to `CCCCCCCCCC(=O)[C@@]12O[C@@]13C1=COC(C[C@H](C)O)=CC1=CC(=O)[C@]3(C)OC2=O` [Compound 2, berkchaetoazaphilone B], for which the “inhibition of production of IL-33” value in experiment [2] was “completely inhibited”. Besides, in experiment [3], the “TNFα production in the induced inflammasome assay” value is listed as “inhibited”. Besides, the IC50 in experiment [4] and in experiment [6] was 10 µM in each case. In addition, the “IL-1β production in the induced inflammasome assay” value in experiment [5] was “inhibited”. The “IL-6 production in the induced inflammasome assay” value in experiment [7] (abstract, no concentration given) was “inhibited”. In addition, the “inhibition of production of interleukin 6 (IL-6)” value in experiment [7] (at 10 μM, THP-1 cells induced with LPS and TiO2) is “completely inhibited”.
